Measurements: ChEMBL document CHEMBL1201862, “PubChem BioAssay data set” (2004)
The source made the active and inactive calls.

Legend:
[1] = molecular target: T1, Oxysterols receptor LXR-beta (Homo sapiens, UniProt P55055); test: LXR agonists, Gal4 luciferase reporter, dose response, counter-screen for ssDAF-12 agonist project, cell-based, luminescence, HEK293, S. stercoralis campaign (AID 720737); assay type: functional; conditions: read-out: IC50 (the source's name)
T1 sequence (P55055 whole entry): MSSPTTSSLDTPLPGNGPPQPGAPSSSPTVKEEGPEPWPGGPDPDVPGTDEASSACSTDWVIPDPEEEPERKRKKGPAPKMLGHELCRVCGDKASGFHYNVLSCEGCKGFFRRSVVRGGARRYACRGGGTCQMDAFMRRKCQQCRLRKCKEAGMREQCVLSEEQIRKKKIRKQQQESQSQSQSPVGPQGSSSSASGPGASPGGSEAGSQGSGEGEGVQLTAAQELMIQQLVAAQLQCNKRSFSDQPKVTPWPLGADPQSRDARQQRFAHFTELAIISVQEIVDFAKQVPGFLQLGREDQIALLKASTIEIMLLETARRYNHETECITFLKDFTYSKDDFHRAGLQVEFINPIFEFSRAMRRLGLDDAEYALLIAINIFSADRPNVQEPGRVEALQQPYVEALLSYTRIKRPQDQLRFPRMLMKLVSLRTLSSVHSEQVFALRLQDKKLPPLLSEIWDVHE

[2] = Luminescence-based cell-based high throughput dose response assay to identify activators of the DAF-12 from the parasite S. stercoralis (ssDAF-12).; assay type: functional
[3] = inhibitors of TRPM1-promoter reporter in SK-MEL-5 – cell-based, luciferase, dry powder, set 8, MITF inhibitor project, dose response (AID 624430); assay type: functional
[4] = MITF: Counter assay: A375 proliferation Measured in Cell-Based System Using Plate Reader - 2084-03_Inhibitor_Dose_DryPowder_Activity_Set8.; assay type: functional; conditions: A-375
[5] = MITF Orthogonal Assay: SK-MEL-5 CTG Assay Measured in Cell-Based System Using Plate Reader - 2084-02_Inhibitor_Dose_DryPowder_Activity_Set7.; assay type: functional
[6] = Late stage assay provider results from the probe development effort to identify selective inhibitors of heat shock protein 90 (HSP90): Absorbance-based cell proliferation assay in MCF7 cells.; assay type: functional
[7] = Late stage assay provider results from the probe development effort to identify selective inhibitors of heat shock protein 90 (HSP90): Absorbance-based cell proliferation assay in SKBR3 cells.; assay type: functional; conditions: SK-BR-3
[8] = viability loss in Vero cells – cytotoxicity control for Vif-APOBEC3G degradation inhibitor project, dose response (AID 1117358); assay type: functional; conditions: Vero
[9] = molecular target: T2, Tyrosine-protein phosphatase non-receptor type 7 (Homo sapiens, UniProt P35236); test: HePTP tyrosine phosphatase activity blockers – biochemical, absorbance, leukemia target, primary screen (AID 521); assay type: functional
T2 sequence (P35236 whole entry): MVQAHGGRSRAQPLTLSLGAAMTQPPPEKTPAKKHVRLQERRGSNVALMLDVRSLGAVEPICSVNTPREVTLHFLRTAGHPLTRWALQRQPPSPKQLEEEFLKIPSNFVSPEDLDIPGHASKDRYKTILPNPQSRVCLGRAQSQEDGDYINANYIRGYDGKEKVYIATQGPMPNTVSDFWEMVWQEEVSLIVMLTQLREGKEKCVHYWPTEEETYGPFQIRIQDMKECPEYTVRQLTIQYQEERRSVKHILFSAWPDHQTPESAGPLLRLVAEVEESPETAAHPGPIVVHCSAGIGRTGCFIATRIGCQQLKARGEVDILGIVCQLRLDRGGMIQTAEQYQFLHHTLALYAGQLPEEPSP

Paired box protein Pax-8 = Paired box protein Pax-8 (Homo sapiens, UniProt Q06710); test: PAX8 transcriptional activity inhibition in RMG-I – RMG-I cells, luciferase, cherry-pick, dose response (AID 687027); assay type: functional, cell-based;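 also: luciferase reporter driven by Pax8 target thyroperoxidase promoter measured by SteadyGlo luminescence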
Paired box protein Pax-8, sequence (Q06710 whole entry): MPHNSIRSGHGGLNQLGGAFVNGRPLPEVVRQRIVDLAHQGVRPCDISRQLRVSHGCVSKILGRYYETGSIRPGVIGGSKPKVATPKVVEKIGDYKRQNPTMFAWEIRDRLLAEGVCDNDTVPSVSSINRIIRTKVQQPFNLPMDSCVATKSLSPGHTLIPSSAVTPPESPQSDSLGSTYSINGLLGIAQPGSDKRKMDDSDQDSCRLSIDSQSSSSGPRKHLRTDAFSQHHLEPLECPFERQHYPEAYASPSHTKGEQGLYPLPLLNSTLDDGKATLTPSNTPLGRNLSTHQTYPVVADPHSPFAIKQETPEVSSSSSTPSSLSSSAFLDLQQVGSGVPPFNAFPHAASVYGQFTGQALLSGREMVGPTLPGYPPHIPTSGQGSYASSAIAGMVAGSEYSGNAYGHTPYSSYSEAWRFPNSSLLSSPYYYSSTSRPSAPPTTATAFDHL

[10] = general mammalian cell viability loss – inhibitor set, cherry-pick, set 2, cytotoxicity control for miR-122 modulator project, dose response (AID 720697); assay type: functional, cell-based
[11] = general mammalian cell viability loss – activator set, cherry-pick, cytotoxicity control for miR-122 modulator project, dose response (AID 720690); assay type: functional, cell-based;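 also: HEK293T human cells scored for general mammalian cytotoxicity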
[12] = viability loss in A549 lung cells – cell-based, 24 h, CellTiter-Glo luminescence, cherry-picks, cytotoxicity control, dose response (AID 1053115); assay type: functional; conditions: A549, 24 h
[13] = lung carcinoma cell viability loss – CellTiter-Glo luminescence, dry powder, set 17, dose response (AID 1117284); assay type: functional, cell-based; conditions: A549
[14] = activation of miR-122 Renilla sensor silencing – cell-based, Huh7 psiCHECK-miR122, Renilla luciferase, cherry-picked, dose response (AID 651956); assay type: functional;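 also: huh7 hepatoma cells stably carrying a psiCHECK-2 miR-122 sensor plasmid; renilla luciferase signal reporting endogenous miR-122 activity after 48 h compound exposure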
[15] = growth inhibition of PfATP4-mutant resistant parasites – NITD609-resistant line, SYBR Green, dry powder, dose response (AID 1159571); assay type: functional, cell-based;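 also: parasites synchronized at ring stage by sorbitol before testing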
[16] = toxicity to human HepG2 hepatoma cells – cell-based, plate reader, dry powder samples, cytotoxicity control, dose response (AID 1159569); assay type: functional;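 also: inhibitor potency with signal falling toward the positive control level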
[17] = Dd2 parasite growth inhibition in erythrocytes – SYBR Green, dry powder samples, set 9, dose response (AID 1159568); assay type: functional, cell-based
[18] = Dd2 malaria parasite growth inhibition potency – SYBR Green, dry powder samples, dose response (AID 1159566); assay type: functional, cell-based;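 also: potency for growth inhibition with lower SYBR green DNA signal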
[19] = HIV-1 AD8 envelope cell-cell fusion blockers – cherry-pick, dose response (AID 652062); assay type: functional, cell-based;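 also: luciferase signal from cell-cell fusion driven by HIV-1 clade B AD8 Env; potency is for inhibitors of fusion seen as a drop in luminescence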
[20] = P. falciparum Dd2 growth inhibitors, dose response, SYBR Green, cherry-picked samples (AID 1159567); assay type: functional, cell-based
[21] = growth inhibition of yeast DHODH-expressing 3D7 parasites – SYBR Green, dry powder samples, dose response (AID 1159570); assay type: functional, cell-based;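 also: parasite growth measured after 72 hours of compound exposure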
[22] = blockers of HIV-1 ZM109 envelope-driven cell-cell fusion – HeLa effector, CEM target cells, luciferase, cherry-pick, dose response (AID 652058); assay type: functional, cell-based;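 also: luciferase signal from HIV-1 Env mediated cell-cell fusion of effector and target cells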
[23] = TNFa-induced NF-kB reporter signal decrease – HEK293 LMP1 reporter cells, dry powder, set 2, selectivity assay for EBV LMP1 NF-kB inhibitor project, dose response (AID 624369); assay type: functional
[24] = inhibitors of EBV LMP1 NF-kappaB signaling – cell-based, luciferase reporter, luminescence, dry powder, set 2, dose response (AID 624376); assay type: functional
[25] = LMP1-induced NF-kB luciferase signal inhibition – cell-based, EBV LMP1, dry powder, set 2, dose response (AID 624361); assay type: functional
[26] = viability loss in HEK293 kidney cells – cell-based, cherry-picks, set 5, cytotoxicity control, dose response (AID 1053117); assay type: functional
[27] = off-target signal loss in HeLa-CEM21 co-culture – HeLa F-luc CTL cells, cherry-picked, counter-screen for HIV-1 Env fusion inhibitor project, dose response (AID 652040); assay type: functional, cell-based;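 also: potency for signal decrease marking cytotoxic or nonspecific inhibition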
[28] = viability loss in CEM21 cells – cell-based, plate reader, dry powder, cytotoxicity control, dose response (AID 687026); assay type: functional
[29] = loss of viability in HepG2 cells – cell-based, CellTiter-Glo, cherry-picked, cytotoxicity control for Shn3 inhibitor project, dose response (AID 624134); assay type: functional
Protein Wnt-3a = Protein Wnt-3a (Mus musculus, UniProt P27467); test: antagonism of Wnt3a pathway luciferase reporter – Wnt-LIGHT cells, luminescence, selectivity assay for Gli-SUFU antagonist project, dose response (AID 651570); assay type: functional; conditions: read-out: IC50_Mean;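 also: Wnt-LIGHT reporter cells stimulated with conditioned medium from Wnt3a-producing cells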
Protein Wnt-3a, sequence (P27467 whole entry): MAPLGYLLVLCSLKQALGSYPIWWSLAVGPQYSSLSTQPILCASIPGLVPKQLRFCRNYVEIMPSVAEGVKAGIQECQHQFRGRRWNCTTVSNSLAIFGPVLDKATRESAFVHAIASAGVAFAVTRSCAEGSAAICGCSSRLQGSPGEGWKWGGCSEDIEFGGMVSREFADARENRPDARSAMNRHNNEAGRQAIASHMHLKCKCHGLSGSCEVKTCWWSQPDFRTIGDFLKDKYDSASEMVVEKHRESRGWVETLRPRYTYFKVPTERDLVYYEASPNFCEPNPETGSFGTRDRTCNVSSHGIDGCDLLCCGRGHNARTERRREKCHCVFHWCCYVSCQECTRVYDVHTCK

INS1 = test: INS-1E survival protection against cytokine death – cell-based, luminescence, retest, dose response (AID 449756); assay type: functional; conditions: Rattus norvegicus;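 also: cell death triggered by IL-1 beta plus TNF-alpha plus IFN-gamma mixture; protective hits raise ATP signal compared with cytokine alone wells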
[30] = blockers of HIV-1 envelope-mediated cell-cell fusion – cherry-pick, dose response (AID 652057); assay type: functional, cell-based
[31] = reduction of Shn3 3'UTR-driven luciferase in osteoblasts – cell-based, Clone20 osteoblasts, firefly luciferase, cherry-picked, dose response (AID 624132); assay type: functional;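 also: firefly luciferase luminescence from reporter carrying the Shn3 3'UTR in osteoblasts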
[32] = non-specific 3'UTR reporter inhibition in Clone20-Shn3RL – cell-based, Renilla luciferase, cherry-picked, counter-screen for Shn3 inhibitor project, dose response (AID 624133); assay type: functional
[33] = viability loss in HepG2 hepatoma cells – cell-based, ATP luminescence, cherry-pick, activator set 2, cytotoxicity control, dose response (AID 1053143); assay type: functional
Nonstructural protein 1 = Nonstructural protein 1 (Influenza A virus, UniProt Q194T2); assay type: functional, Influenza A virus (A/California/07/2009(H1N1))
Nonstructural protein 1, sequence (Q194T2 whole entry): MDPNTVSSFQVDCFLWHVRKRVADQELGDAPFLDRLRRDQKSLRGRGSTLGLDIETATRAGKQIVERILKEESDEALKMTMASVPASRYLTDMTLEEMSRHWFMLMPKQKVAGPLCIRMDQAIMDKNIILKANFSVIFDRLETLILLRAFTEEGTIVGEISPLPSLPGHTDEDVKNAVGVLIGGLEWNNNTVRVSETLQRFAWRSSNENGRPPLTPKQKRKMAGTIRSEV

cells [34] = assay type: functional, cell-based
cells [35] = assay type: functional, cell-based; remark: listed apart in the source
[36] = toxicity to human hepatoma HepG2 cells – cell-based, cherry-picked samples, cytotoxicity control, dose response (AID 1159577); assay type: functional
[37] = HGIII-sPLA2 enzyme inhibition potency – biochemical, QFRET, IC50, dose response (AID 743457);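 also: green fluorescence rise as the enzyme cleaves BODIPY PC-A2 in liposomes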
[38] = molecular target: Histone-lysine N-methyltransferase NSD2 (Homo sapiens, UniProt O96028); assay type: biochemical
Histone-lysine N-methyltransferase NSD2, sequence (O96028 whole entry): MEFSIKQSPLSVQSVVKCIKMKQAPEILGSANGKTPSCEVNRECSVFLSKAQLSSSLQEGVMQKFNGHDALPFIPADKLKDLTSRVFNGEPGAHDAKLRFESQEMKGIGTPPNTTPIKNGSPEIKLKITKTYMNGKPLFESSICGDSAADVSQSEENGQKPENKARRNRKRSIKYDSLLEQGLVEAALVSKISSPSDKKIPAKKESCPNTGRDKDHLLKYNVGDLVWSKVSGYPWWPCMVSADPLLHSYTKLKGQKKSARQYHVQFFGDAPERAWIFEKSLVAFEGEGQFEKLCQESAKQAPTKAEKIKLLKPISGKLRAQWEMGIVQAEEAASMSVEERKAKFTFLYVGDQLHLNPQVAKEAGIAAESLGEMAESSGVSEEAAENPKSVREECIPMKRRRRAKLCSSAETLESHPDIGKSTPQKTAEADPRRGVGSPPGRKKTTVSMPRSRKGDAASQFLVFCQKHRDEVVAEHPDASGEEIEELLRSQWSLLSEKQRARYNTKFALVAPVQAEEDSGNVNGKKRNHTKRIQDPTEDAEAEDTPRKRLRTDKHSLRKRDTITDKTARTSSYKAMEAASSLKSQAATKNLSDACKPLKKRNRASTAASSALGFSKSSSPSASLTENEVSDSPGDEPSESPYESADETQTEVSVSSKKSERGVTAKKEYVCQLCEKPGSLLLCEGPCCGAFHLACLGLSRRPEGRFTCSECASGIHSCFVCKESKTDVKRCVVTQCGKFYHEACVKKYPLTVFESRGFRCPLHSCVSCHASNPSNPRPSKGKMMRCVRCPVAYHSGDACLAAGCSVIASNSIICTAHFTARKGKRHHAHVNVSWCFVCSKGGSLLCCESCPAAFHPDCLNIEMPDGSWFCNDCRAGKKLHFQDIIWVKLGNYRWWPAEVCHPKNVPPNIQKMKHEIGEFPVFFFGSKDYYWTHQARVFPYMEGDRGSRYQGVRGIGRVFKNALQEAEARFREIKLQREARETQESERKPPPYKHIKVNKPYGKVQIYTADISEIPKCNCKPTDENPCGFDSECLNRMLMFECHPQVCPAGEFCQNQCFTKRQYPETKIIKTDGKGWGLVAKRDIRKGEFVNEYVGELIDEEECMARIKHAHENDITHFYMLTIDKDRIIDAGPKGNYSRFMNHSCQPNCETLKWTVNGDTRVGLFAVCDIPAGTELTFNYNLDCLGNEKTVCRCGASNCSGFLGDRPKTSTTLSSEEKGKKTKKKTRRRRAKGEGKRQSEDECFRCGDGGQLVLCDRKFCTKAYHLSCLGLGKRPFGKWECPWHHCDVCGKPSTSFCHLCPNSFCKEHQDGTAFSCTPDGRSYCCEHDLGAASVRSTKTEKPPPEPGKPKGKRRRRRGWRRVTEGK

SMILES: Cn1/c(=N\C(=O)c2ccco2)sc2ccccc21
- EC50 [1]: > 67.5 µM (inactive)
- IC50 [2]: > 67.5 µM (inactive)

SMILES: COc1ccc(NC2=C(C)C(=O)c3ccccc3C2=O)cc1
- AC50 [3]: 14.3 µM (active)
- AC50 [4]: > 70 µM (inactive)
- AC50 [5]: 0.533 µM (active)

SMILES: Cc1cccc(NC(=O)c2coc(=O)c(Br)c2)n1
- IC50 [6]: 27.3 µM (inactive)
- IC50 [7]: 45.8 µM (inactive)

SMILES: CCOc1c(OC)cccc1C1CC(=O)Nc2cc3c(cc21)OCCO3 (stereo unspecified)
- CC50 [8]: > 40 µM (active)

SMILES: Clc1ccccc1Cn1nnc2c(NCCN3CCOCC3)ncnc21
- IC50 [9]: > 100 µM (not active)

SMILES: C[C@H](O)C#Cc1ccc2c(c1)O[C@H](CN(C)Cc1ccc(-c3ccccc3)cc1)[C@@H](C)CN([C@H](C)CO)S2(=O)=O
- AC50 (Paired box protein Pax-8): 15.9 µM (active)
- AC50 [10]: 7.51 µM (active)
- AC50 [11]: 16.7 µM (active)
- AC50 [12]: 59.6 µM (active)
- AC50 [13]: 35.1 µM (active)
- AC50 [14]: 6.13 µM (active)

SMILES: CCCNC(=O)N1[C@H](C#N)[C@H](c2ccc(-c3cccc(OC)c3)cc2)[C@@H]1CO
- AC50 [15]: 0.278 µM (active)
- AC50 [16]: 90.7 µM (active)
- AC50 [17]: 0.171 µM (active)
- AC50 [18]: 0.168 µM (active)
- AC50 [19]: 25.5 µM (active)
- AC50 [20]: 0.56 µM (active)
- AC50 [21]: 1.4 µM (active)

SMILES: C[C@@H]1CN([C@H](C)CO)S(=O)(=O)c2ccc(C#C[C@@H](C)O)cc2O[C@H]1CN(C)Cc1ccc(-c2ccccc2)cc1
- AC50 [12]: > 60 µM (inactive)
- AC50 [13]: > 52 µM (inactive)

SMILES: COc1ccccc1Oc1ccc(S(=O)(=O)NCc2ccccn2)cc1
- AC50 [22]: 25.1 µM (active)
- AC50 [19]: 14.8 µM (active)
- IC50 [9]: > 100 µM (not active)

SMILES: COc1ccccc1CNC(=O)C[C@@H]1C[C@H]2c3cc(NC(=O)c4ccc5c(c4)OCO5)ccc3O[C@H]2[C@H](CO)O1
- AbsAC35 [23]: 232.4 µM
- AbsAC35 [24]: 37.67 µM
- AbsAC35 [25]: 179.84 µM

SMILES: CO[C@H]1CN(C)C(=O)c2cc(NC(=O)Nc3cc(Cl)cc(Cl)c3)ccc2OC[C@@H](C)NC[C@@H]1C
- AC50 [26]: > 52 µM (inactive)

SMILES: CN1C(=O)c2cc(NC(=O)c3ccc(C(F)(F)F)cc3)ccc2OC[C@@H]2O[C@H](CC(=O)NC3Cc4ccccc4C3)CC[C@H]21
- AbsAC35 [23]: 229.94 µM
- AbsAC35 [24]: 100.28 µM
- AbsAC35 [25]: 52.78 µM
- AC50 [14]: 15.5 µM (active)

SMILES: Cc1nn(CC(=O)OC(C)C(=O)Nc2ccccc2[N+](=O)[O-])c(C)c1[N+](=O)[O-] (stereo unspecified)
- EC50 [1]: > 67.5 µM (inactive)
- IC50 [2]: > 67.5 µM (inactive)

SMILES: COC(=O)CCCCOc1ccc2cc(C#N)c(=O)oc2c1
- IC50 [6]: > 100 µM (inactive)
- IC50 [7]: > 100 µM (inactive)

SMILES: COc1ccc(CC(=O)Nc2cccc(S(=O)(=O)N3CCCCCC3)c2)cc1OC
- AC50 [27]: > 70 µM (inactive)
- AC50 [28]: > 70 µM (inactive)
- AC50 [29]: 2.12 µM (active)
- IC50 (Protein Wnt-3a): 1.73 µM (active)
- AC50 (INS1): 6.12 µM (active)
- AC50 [30]: 7.05 µM (active)
- AC50 [31]: 2.27 µM (active)
- AC50 [19]: 3.47 µM (active)
- AC50 [32]: 30 µM (active)

SMILES: c1ccc(-c2cnc(-c3ccccn3)nn2)cc1
- AC50 [33]: 26 µM (active)
- IC50 (Nonstructural protein 1): 18.9 µM (active)

SMILES: COCCNC(=O)c1cc(-c2cccs2)on1
- AC50 [33]: 26 µM (active)
- EC50 (cells [34]): 70.8 µM (active)
- EC50 (cells [35]): > 350 µM (not active)

SMILES: COc1ccc2c3c(n(C)c2c1)[C@@H](CO)NCC31CN(Cc2ccc(-c3ccccn3)cc2)C1
- AC50 [36]: 20.4 µM (active)
- AC50 [20]: 1.66 µM (active)

SMILES: CC(C)(C)c1ccc(NC2=CC(=O)c3ccccc3C2=O)cc1
- AC50 [3]: 13.9 µM (active)
- AC50 [4]: > 70 µM (inactive)
- AC50 [5]: 3.03 µM (active)

SMILES: Sc1nnc(-c2ccc(Cl)cc2)n1-c1ccc2c(c1)OCCO2
- IC50 [37]: > 122 µM (inactive)

SMILES: COCC(C)OC(=O)/C(C#N)=C\c1coc2ccc(C)cc2c1=O (stereo unspecified)
- AC50 [38]: 11.9 µM (active)

SMILES: Cc1cccc(-n2c(S)nnc2-c2ccoc2C)c1
- IC50 [37]: > 122 µM (inactive)
